Results as given in patent US6906097B2, “8-azaprostaglandin analogs as agents for lowering intraocular pressure” (Allergan, Inc., priority 2002, dated 2005).

How the values were obtained:
hEP3A = target: T1, hEP3A (Homo sapiens, UniProt P43115); experiment: Functional data, human recombinant EP3A receptor stable transfectants; type: cell-based
T1 construct: expressed in transfected cells
T1 sequence (P43115 1-390): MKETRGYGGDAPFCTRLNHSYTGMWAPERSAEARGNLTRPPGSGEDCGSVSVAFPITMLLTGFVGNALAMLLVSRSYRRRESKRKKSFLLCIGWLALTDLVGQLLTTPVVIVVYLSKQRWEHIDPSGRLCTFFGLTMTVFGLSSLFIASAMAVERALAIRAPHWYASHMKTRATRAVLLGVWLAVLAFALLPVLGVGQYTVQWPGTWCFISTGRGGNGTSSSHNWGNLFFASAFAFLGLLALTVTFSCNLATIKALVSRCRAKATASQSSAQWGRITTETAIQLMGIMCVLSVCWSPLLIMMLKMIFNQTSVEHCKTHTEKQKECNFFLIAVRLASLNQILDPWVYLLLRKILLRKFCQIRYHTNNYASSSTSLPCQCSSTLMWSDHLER
Procedure: (§1) Human Recombinant EP1, EP2, EP3, EP4, FP, TP, IP and DP Receptors: Stable Transfectants
(§2) Plasmids encoding the human EP1, EP2, EP3, EP4, FP, TP, IP and DP receptors were prepared by cloning the respective coding sequences into the eukaryotic expression vector pCEP4 (Invitrogen). The pCEP4 vector contains an Epstein Barr virus (EBV) origin of replication, which permits episomal replication in primate cell lines expressing EBV nuclear antigen (EBNA-1). It also contains a hygromycin resistance gene that is used for eukaryotic selection. […] HEK-293 cells were grown in DMEM with 10% fetal bovine serum (FBS), 250 μg ml^−1 G418 (Life Technologies) and 200 μg ml^−1 gentamicin or penicillin/streptomycin.
(§3) For transfection, the cells were grown to 50-60% confluency on 10 cm plates. The plasmid pCEP4 incorporating cDNA inserts for the respective human prostanoid receptor (20 μg) was added to 500 μl of 250 mM CaCl2. […] After 30 min, 9 ml DMEM were added to the mixture. The DNA/DMEM/calcium phosphate mixture was then added to the cells, which had been previously rinsed with 10 ml PBS. The cells were then incubated for 5 hr at 37° C. in humidified 95% air/5% CO2. The calcium phosphate solution was then removed and the cells were treated with 10% glycerol in DMEM for 2 min. The glycerol solution was then replaced by DMEM with 10% FBS. The cells were incubated overnight and the medium was replaced by DMEM/10% FBS containing 250 μg ml^−1 G418 and penicillin/streptomycin. The following day hygromycin B was added to a final concentration of 200 μg ml^−1.
(§4) Ten days after transfection, hygromycin B resistant clones were individually selected and transferred to a separate well on a 24 well plate. At confluence each clone was transferred to one well of a 6 well plate, and then expanded in a 10 cm dish. Cells were maintained under continuous hygromycin selection until use.

hEP1 = target: T2, hEP1 (Homo sapiens, UniProt P34995); experiment: Functional data, human recombinant EP1 receptor stable transfectants; type: cell-based
T2 construct: expressed in transfected cells
T2 sequence (P34995 1-402): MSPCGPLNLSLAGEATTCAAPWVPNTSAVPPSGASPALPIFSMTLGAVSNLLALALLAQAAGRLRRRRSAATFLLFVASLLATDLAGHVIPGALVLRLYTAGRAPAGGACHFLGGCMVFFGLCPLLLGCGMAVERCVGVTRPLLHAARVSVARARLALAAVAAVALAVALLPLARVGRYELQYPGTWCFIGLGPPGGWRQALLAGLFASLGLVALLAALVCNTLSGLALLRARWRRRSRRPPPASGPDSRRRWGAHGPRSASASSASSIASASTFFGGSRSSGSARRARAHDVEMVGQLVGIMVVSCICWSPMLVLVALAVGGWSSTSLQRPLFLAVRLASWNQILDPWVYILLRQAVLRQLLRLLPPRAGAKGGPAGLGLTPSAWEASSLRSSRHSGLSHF
Procedure: as §1
(§5) Plasmids encoding the human EP1, EP2, EP3, EP4, FP, TP, IP and DP receptors were prepared by cloning the respective coding sequences into the eukaryotic expression vector pCEP4 (Invitrogen). The pCEP4 vector contains an Epstein Barr virus (EBV) origin of replication, which permits episomal replication in primate cell lines expressing EBV nuclear antigen (EBNA-1). It also contains a hygromycin resistance gene that is used for eukaryotic selection. The cells employed for stable transfection were human embryonic kidney cells (HEK-293) that were transfected with and express the EBNA-1 protein. These HEK-293-EBNA cells (Invitrogen) were grown in medium containing Geneticin (G418) to maintain expression of the EBNA-1 protein. HEK-293 cells were grown in DMEM with 10% fetal bovine serum (FBS), 250 μg ml^−1 G418 (Life Technologies) and 200 μg ml^−1 gentamicin or penicillin/streptomycin.
(§6) For transfection, the cells were grown to 50-60% confluency on 10 cm plates. The plasmid pCEP4 incorporating cDNA inserts for the respective human prostanoid receptor (20 μg) was added to 500 μl of 250 mM CaCl2. HEPES buffered saline×2 (2×HBS, 280 mM NaCl, 20 mM HEPES acid, 1.5 mM Na2 HPO4, pH 7.05-7.12) was then added dropwise to a total of 500 μl, with continuous vortexing at room temperature. After 30 min, 9 ml DMEM were added to the mixture. The DNA/DMEM/calcium phosphate mixture was then added to the cells, which had been previously rinsed with 10 ml PBS. The cells were then incubated for 5 hr at 37° C. in humidified 95% air/5% CO2. The calcium phosphate solution was then removed and the cells were treated with 10% glycerol in DMEM for 2 min. The glycerol solution was then replaced by DMEM with 10% FBS. The cells were incubated overnight and the medium was replaced by DMEM/10% FBS containing 250 μg ml^−1 G418 and penicillin/streptomycin. The following day hygromycin B was added to a final concentration of 200 μg ml^−1.
as §4

hEP4 [1] = target: T3, hEP4 (Homo sapiens, UniProt P35408); experiment: Radioligand binding, hEP4; conditions: [3H]PGE2 competition
T3 construct: expressed in transfected cells
Procedure: as §1, §2, §3, §4
Radioligand binding studies on plasma membrane fractions prepared for cells stably transfected with the cat or human receptor were performed as follows. Cells washed with TME buffer were scraped from the bottom of the flasks and homogenized for 30 sec using a Brinkman PT 10/35 polytron. TME buffer was added as necessary to achieve a 40 ml volume in the centrifuge tubes. TME is comprised of 50 mM TRIS base, 10 mM MgCl2, 1 mM EDTA; pH 7.4 is achieved by adding 1 N HCl. The cell homogenate was centrifuged at 19,000 rpm for 20-25 min at 4° C. using a Beckman Ti-60 or Ti-70 rotor. The pellet was then resuspended in TME buffer to provide a final protein concentration of 1 mg/ml, as determined by Bio-Rad assay. Radioligand binding assays were performed in a 100 μl or 200 μl volume.
The binding of [^3H](N) PGE2 (specific activity 165 Ci/mmol) was determined in duplicate and in at least 3 separate experiments. Incubations were for 60 min at 25° C. and were terminated by the addition of 4 ml of ice-cold 50 mM TRIS-HCl followed by rapid filtration through Whatman GF/B filters and three additional 4 ml washes in a cell harvester (Brandel). Competition studies were performed using a final concentration of 2.5 or 5 nM [^3H](N) PGE2 and non-specific binding was determined with 10^−5 M unlabelled PGE2.

hEP2 = target: T4, hEP2 (Homo sapiens, UniProt P43116); experiment: Radioligand binding, hEP2; conditions: [3H]PGE2 competition
T4 construct: expressed in transfected cells
Procedure: as §1
as §5, with “HEK-293 cells were grown in DMEM with 10% fetal bovine serum (FBS), 250 μg ml^−1 G418 (Life Technologies) and 200 μg ml^−1 gentamicin or penicillin/streptomycin.” left out
Radioligand binding studies on plasma membrane fractions prepared for cells stably transfected with the cat or human receptor were performed as follows. […] The pellet was then resuspended in TME buffer to provide a final protein concentration of 1 mg/ml, as determined by Bio-Rad assay. […]
The binding of [^3H](N) PGE2 (specific activity 165 Ci/mmol) was determined in duplicate and in at least 3 separate experiments. […] Competition studies were performed using a final concentration of 2.5 or 5 nM [^3H](N) PGE2 and non-specific binding was determined with 10^−5 M unlabelled PGE2.

hEP4 [2] = target: T3, hEP4; experiment: Functional data, human recombinant EP4 receptor stable transfectants; type: cell-based
Procedure: as §1, §2, §3, §4

hTP = target: T5, hTP (Homo sapiens, UniProt P21731); experiment: Functional data, human recombinant TP receptor stable transfectants; type: cell-based
T5 construct: expressed in transfected cells
T5 sequence (P21731 1-343): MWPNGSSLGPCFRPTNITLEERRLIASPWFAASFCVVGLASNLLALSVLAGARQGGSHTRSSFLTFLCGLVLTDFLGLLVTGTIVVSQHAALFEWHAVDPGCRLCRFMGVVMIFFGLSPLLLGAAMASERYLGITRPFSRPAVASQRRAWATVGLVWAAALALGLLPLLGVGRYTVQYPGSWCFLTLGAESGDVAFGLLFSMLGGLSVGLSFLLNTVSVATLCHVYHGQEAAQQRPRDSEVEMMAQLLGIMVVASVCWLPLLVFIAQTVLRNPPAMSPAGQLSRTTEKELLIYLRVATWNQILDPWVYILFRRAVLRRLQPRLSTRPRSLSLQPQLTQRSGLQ
Procedure: as §1, §5, §6, §4

hEP3D = target: T6, hEP3D (Homo sapiens, UniProt P43115); experiment: Radioligand binding, hEP3D; conditions: [3H]PGE2 competition
T6 construct: expressed in transfected cells; host or cells: COS-7, transient transfection, plasma membrane fraction
T6 sequence (P43115 1-374 isoform P43115-4): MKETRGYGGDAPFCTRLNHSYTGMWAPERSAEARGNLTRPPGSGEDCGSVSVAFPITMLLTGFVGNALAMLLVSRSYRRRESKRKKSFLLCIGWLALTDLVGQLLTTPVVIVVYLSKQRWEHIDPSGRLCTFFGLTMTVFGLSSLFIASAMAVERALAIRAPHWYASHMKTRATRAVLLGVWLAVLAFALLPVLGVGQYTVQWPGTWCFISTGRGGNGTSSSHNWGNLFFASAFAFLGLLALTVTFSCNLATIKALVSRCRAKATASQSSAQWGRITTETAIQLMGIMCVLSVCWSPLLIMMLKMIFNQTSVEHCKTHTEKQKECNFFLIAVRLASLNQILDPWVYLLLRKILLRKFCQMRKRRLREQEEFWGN
Procedure: For radioligand binding on the transient transfectants, plasma membrane fraction preparation was as follows. COS-7 cells were washed with TME buffer, scraped from the bottom of the flasks, and homogenized for 30 sec using a Brinkman PT 10/35 polytron. TME buffer was added to achieve a final 40 ml volume in the centrifuge tubes. The composition of TME is […]; 10N HCl is added to achieve a pH of 7.4.
The cell homogenate was centrifuged at 19000 rpm for 20 min at 4° C. using a Beckman Ti-60 rotor. The resultant pellet was resuspended in TME buffer to give a final 1 mg/ml protein concentration, as determined by Biorad assay. Radioligand binding assays were performed in a 200 μl volume.
The binding of [^3H] PGE2 (specific activity 165 […]) at EP3D, receptors and [^3H]-SQ29548 (specific activity 41.5 Ci mmol^−1) at TP receptors were determined in duplicate in at least three separate experiments. Radiolabeled PGE2 was purchased from Amersham, radiolabeled SQ29548 was purchased from New England Nuclear. […] Competition studies were performed using a final concentration of 2.5 or 5 nM [^3H]-PGE2, or 10 nM [^3H]-SQ 29548 and non-specific binding determined with 10 μM of the respective unlabeled prostanoid. […]

hIP = target: T7, hIP (Homo sapiens, UniProt P43119); experiment: Functional data, human recombinant IP receptor stable transfectants; type: cell-based
T7 construct: expressed in transfected cells
Procedure: as §1, §5
For transfection, the cells were grown to 50-60% confluency on 10 cm plates. The plasmid pCEP4 incorporating cDNA inserts for the respective human prostanoid receptor (20 μg) was added to 500 μl of 250 mM CaCl2. HEPES buffered saline×2 (2×HBS, 280 mM NaCl, 20 mM HEPES acid, 1.5 mM Na2 HPO4, pH 7.05-7.12) was then added dropwise to a total of 500 μl, with continuous vortexing at room temperature. […]

T3 sequence (P35408 whole entry): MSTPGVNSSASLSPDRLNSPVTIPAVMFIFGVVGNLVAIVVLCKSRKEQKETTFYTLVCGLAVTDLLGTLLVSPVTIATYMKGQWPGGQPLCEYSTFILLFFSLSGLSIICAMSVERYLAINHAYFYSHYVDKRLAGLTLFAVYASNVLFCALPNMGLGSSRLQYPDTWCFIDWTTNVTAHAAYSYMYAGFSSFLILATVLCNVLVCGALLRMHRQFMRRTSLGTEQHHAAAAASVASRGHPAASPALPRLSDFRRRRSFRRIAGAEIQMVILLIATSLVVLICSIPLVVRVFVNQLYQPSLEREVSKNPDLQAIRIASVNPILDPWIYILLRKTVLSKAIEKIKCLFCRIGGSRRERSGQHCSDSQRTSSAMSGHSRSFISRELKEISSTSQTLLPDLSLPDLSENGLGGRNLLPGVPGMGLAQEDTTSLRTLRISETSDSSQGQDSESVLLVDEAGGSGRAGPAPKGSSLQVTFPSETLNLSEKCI
T4 sequence (P43116 whole entry): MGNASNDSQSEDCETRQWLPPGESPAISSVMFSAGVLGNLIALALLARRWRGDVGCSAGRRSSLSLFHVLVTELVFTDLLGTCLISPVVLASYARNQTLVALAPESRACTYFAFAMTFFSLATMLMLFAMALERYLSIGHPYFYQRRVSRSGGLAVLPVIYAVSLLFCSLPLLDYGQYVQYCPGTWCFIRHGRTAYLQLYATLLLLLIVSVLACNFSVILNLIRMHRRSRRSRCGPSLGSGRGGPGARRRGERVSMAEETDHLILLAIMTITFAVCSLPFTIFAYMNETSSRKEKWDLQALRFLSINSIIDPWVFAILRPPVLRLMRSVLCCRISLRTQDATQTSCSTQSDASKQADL
T7 sequence (P43119 whole entry): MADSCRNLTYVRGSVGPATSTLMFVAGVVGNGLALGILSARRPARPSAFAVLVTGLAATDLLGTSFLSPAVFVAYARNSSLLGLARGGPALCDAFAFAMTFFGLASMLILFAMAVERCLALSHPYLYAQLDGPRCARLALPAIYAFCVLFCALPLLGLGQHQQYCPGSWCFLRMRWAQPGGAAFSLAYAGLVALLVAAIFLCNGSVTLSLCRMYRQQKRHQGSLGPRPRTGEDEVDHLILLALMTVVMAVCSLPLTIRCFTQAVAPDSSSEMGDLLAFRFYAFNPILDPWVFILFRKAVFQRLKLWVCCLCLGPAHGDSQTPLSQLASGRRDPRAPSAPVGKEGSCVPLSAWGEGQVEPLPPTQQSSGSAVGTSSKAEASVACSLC

| EC50 (hEP3A) | hEP1 functional EC50 (hEP1) | IC50 (hEP4 [1]) | IC50 (hEP2) | EC50 (hEP4 [2]) | EC50 (hTP) | hEP3A functional EC50 (hEP3A) | EC50 (hEP1) | IC50 (hEP3D) | EC50 (hIP) | SMILES |
| --- | --- | --- | --- | --- | --- | --- | --- | --- | --- | --- |
| 324 nM | hit | 0.4 nM | > 10000 nM | 0.02 nM | > 10000 nM |  |  |  |  | O=C(O)CCCCCCN1C(=O)CC[C@@H]1/C=C/C(O)Cc1cccc(Cl)c1 (stereo partly drawn) [Example 1a, 7-[2S-[3R-Hydroxy-4-(chloro-phenyl)-but-1-enyl]-5-oxo-pyrrolidin-1-yl]-heptanoic acid] |
|  |  | 500 nM | > 10000 nM | 86 nM |  | hit | > 10000 nM |  |  | O=C(O)CCCCCCN1C(=O)CC[C@@H]1/C=C/C(=O)Cc1cccc(C(F)(F)F)c1 [Example 7a, 7-[2S-[3-Oxo-4-(trifluormethylphenyl)-but-1-enyl]-5-oxo-pyrrolidin-1-yl]-heptanoic acid] |
|  |  |  |  | 29 nM | > 10000 nM | hit |  | 300 nM |  | O=C(O)CCCCCCN1C(=O)CC[C@@H]1/C=C/C(=O)Cc1ccccc1 [Example 11a, 7-[2S-[3-Oxo-4-(phenyl)-but-1-enyl]-5-oxo-pyrrolidin-1-yl]-heptanoic acid] |
| > 10000 nM |  | 200 nM |  | 26 nM |  |  |  |  | > 10000 nM | CCOC(=O)CCCCCCN1C(=O)CC[C@@H]1/C=C/C(O)Cc1cccc(C(F)(F)F)c1 (stereo partly drawn) [Example 6a, 7-[2S-[3R-Hydroxy-4-(3-trifluoromethyl-phenyl)-but-1-enyl]-5-oxo-pyrrolidin-1-yl]-heptanoic acid, ethyl ester] |
